Results from patent US6316498A, “Fluorine-containing amino acid derivatives” (Taisho Pharmaceutical Co., Ltd., priority 1998, dated 2001).

System: Methamphetamine-induced Hyperactivity in Mice
Test: Effect on Methamphetamine-induced Hyperactivity in Mice
Assay type: in vivo, male ICR-strain mice
Details: for Count (30-minute quantity of movement): 1 mg/kg methamphetamine; for Inhibition rate: vs group given solvent only; for ED50: Mus musculus, po, methamphetamine-induced hyperactivity; for inhibition of methamphetamine-induced hyperactivity (in words): ANOVA P<0.05, LY354740 except 0.01 mg/kg group
Procedure: (Effect on Methamphetamine-induced Hyperactivity in Mice)
11-12 male ICR-strain mice (body weights 23-32 g, Charles River Japan Inc.) were used for a group. The mice were housed in a transparent cylindrical measurement cage made of vinyl chloride (diameter 30 cm, height 30 cm) and were acclimated to their environment for 90 minutes.
Next, each of the compounds listed in Table 2 was orally administered to the mice, and 30 minutes later, 1 mg/kg methamphetamine was administered […]. 15 minutes later, the 30-minute quantity of movement of the mice was measured by a count, using an automatic movement measurement device (SCANET/SV-10, from Toyo Sangyo Co., Ltd.). Each listed compound was used suspended in a solvent consisting of 0.3% Tween 80 physiological saline solution.
The inhibition rate was determined from the count of the group of mice given solvent only and the count of the group of mice given each prescribed dosage of the compounds listed in Table 2, and the ED50 value was calculated. Statistical processing was done by analysis of variance (ANOVA), followed by Dunnet's test.

| SMILES | Count (30-minute quantity of movement) (0.01 mg/kg p.o.) | Inhibition rate (0.01 mg/kg p.o.) | Count (30-minute quantity of movement) (0.1 mg/kg p.o.) | Inhibition rate (0.1 mg/kg p.o.) | Count (30-minute quantity of movement) (1 mg/kg p.o.) | Inhibition rate (1 mg/kg p.o.) | Count (30-minute quantity of movement) (10 mg/kg p.o.) | Inhibition rate (10 mg/kg p.o.) | ED50 | inhibition of methamphetamine-induced hyperactivity (in words) (p.o.) | inhibition effect relative to LY354740 for methamphetamine-induced hyperactivity (p.o., vs LY354740, from ED50 values) |
| --- | --- | --- | --- | --- | --- | --- | --- | --- | --- | --- | --- |
| N[C@@]1(C(=O)O)CC[C@H]2[C@H](C(=O)O)[C@H]21 [LY354740, (+) - (1S, 2S, 5R, 6S)-2-aminobicyclo[3.1.0]hexane-2,6-dicarboxylic acid] | 12000 ± 3216 | -18.8% | 6975 ± 1489 | 30.9% | 4534 ± 1116 | 55.1% | 3704 ± 1285 | 63.3% | 0.87 mg/kg | the methamphetamine-induced hyperactivity was inhibited in a dose-dependent manner |  |
| N[C@]1(C(=O)O)[C@H]2[C@@H](C[C@@H]1F)[C@@H]2C(=O)O [Comp. 1, (1S,2S,3S,5R,6S)-2-amino-3-fluorobicyclo[3.1.0]hexane-2,6-dicarboxylic acid] | 9512 ± 3005 | 19.6% | 4291 ± 1283 | 63.7% | 2353 ± 733 | 80.1% |  |  | 0.05 mg/kg | A similar effect is also seen | 17.4 times |
